{"source": "paper PMC6952396", "about": "“Structural basis for itraconazole-mediated NPC1 inhibition” (Nature Communications, 2020)", "target": "T1, NPC1 (Cricetulus griseus, UniProt Q9JLG3)", "T1 construct": "CHO-7 cells in the medium are deprived of cholesterol to induce the LDL receptors biosynthesis; endogenous in cells; host or cells: CHO-7 cells", "T1 sequence (Q9JLG3 23-1277)": "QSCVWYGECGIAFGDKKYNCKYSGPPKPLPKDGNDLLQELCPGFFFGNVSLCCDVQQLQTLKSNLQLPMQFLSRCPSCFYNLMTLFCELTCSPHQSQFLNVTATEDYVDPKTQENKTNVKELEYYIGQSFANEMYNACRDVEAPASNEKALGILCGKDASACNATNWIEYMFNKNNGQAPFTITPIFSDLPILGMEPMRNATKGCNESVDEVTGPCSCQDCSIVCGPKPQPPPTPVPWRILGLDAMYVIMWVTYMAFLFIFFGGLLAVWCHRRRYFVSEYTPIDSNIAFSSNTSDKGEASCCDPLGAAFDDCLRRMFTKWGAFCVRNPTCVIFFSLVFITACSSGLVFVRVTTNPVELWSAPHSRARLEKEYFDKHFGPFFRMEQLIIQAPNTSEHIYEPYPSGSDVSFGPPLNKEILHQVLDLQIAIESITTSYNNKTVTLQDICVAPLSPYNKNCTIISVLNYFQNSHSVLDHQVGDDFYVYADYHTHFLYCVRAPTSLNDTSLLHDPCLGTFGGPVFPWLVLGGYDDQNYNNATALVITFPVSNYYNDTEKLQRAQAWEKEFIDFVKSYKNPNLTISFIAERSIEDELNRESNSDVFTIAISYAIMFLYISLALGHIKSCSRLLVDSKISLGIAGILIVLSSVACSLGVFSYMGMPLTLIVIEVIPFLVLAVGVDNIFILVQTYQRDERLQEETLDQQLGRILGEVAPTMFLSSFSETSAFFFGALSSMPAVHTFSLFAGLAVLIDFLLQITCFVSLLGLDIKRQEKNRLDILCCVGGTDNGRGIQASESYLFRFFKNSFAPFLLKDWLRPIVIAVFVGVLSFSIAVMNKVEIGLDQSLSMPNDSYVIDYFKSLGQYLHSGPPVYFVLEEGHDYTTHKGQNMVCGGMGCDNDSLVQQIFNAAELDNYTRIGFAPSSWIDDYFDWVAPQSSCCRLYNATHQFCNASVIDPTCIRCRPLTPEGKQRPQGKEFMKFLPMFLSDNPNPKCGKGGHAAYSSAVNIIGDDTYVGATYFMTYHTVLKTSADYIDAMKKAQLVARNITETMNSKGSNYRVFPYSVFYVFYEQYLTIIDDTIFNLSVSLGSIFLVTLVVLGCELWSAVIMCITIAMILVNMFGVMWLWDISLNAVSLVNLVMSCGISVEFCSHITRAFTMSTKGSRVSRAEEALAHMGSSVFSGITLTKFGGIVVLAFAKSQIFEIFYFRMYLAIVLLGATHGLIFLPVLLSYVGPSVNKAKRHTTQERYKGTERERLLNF", "test": "Cholesterol re-esterification (ACAT) assay measuring NPC1-mediated export of cholesterol from lysosomes in CHO-7 cells", "format": "cell-based", "details": "for cholesteryl [14C] oleate formed, Repeat 1 / cholesteryl [14C] oleate formed, Repeat 2: Fig. 2 source data; for cholesteryl [14C] oleate formed, Repeat 3 / cholesteryl [14C] oleate formed, Repeat 4: Supplementary Fig. 3 source data; for IC50: IC50 (concentration at which each compound inhibited cholesterol esterification by 50%), 10% FCS, 4 h then 2 h [14C] oleate pulse", "description": "Itraconazole has three chiral centers (Supplementary Fig. 2a). The pharmaceutical form contains four cis-stereoisomers in a 1:1:1:1 molar ratio (Supplementary Fig. 2a–d). To determine the activity of the cis-stereoisomers, the individual isomers were isolated and identified based on their optical rotation in chloroform following a previous report (Supplementary Fig. 2e)[26]. Then, they were separately tested in a cholesterol re-esterification assay used to measure NPC1-mediated export of cholesterol from lysosomes. Briefly, CHO-7 cells in the medium are deprived of cholesterol to induce the LDL receptors biosynthesis. The cells are then incubated with fetal calf serum (FCS) that contains LDL. The LDL-derived cholesterol will now be transported by functional NPC1 protein from the lysosome to the endoplasmic reticulum (ER). The acyl-CoA:cholesterol actyltransferase named ACAT can now re-esterify the cholesterol in the ER. Therefore, the cells were pulse-labeled with [^14C] oleate and we can measure the synthesis of cholesteroyl [^14C] oleate to evaluate the activity of NPC1 protein. Using this assay, we tested the ability of various itraconazole to inhibit NPC1 activity.\nFig. 2 ACAT activity of itraconazole and ketoconazole in CHO-7 cells. On day 0, CHO-7 cells were set up in medium A with 5% LPDS at 2.5 × 10^5 cells/well in 6-well dish. On day 2, cells were switched to medium A with 5% LPDS containing 50 µM sodium compactin and 50 µM sodium mevalonate. On day 3 the cells received fresh medium B containing compactin and mevalonate with various concentration compounds in the presence of 10% FCS containing lipoproteins. After incubation for 4 h at 37 °C, each cell monolayer was pulse-labeled for 2 h with 0.1 mM sodium [^14C] oleate (5792 dpm/nmol). The cells were then harvested for measurement of their content of cholesteryl [^14C] oleate and [^14C] triglycerides, as described in Methods. […] Itraconazole mixture, isomer A (Supplementary Fig. 2a), isomer B (Supplementary Fig. 2b) and isomer C (Supplementary Fig. 2c) were added at final concentrations of 0.3 μM. The isomer D (Supplementary Fig. 2d), I-Br and ketoconazole were added at final concentrations of 1 μM. The biological repeats are shown as individual values. Source data are provided as a Source Data file.\nOn day 0, cells were set up in medium A with 5% LPDS at 2.5 × 10^5 cells/well in six-well dish. On day 2, cells were switched to medium A with 5% LPDS containing 50 µM sodium compactin and 50 µM sodium mevalonate. On day 3 the cells received fresh medium B containing compactin and mevalonate with indicated concentration triazole compounds in the presence of 10% FCS containing lipoproteins. After incubation for 4 h at 37 °C, each cell monolayer was pulse-labeled for 2 h with 0.1 mM sodium [^14C] oleate (5792 dpm/nmol). The cells were then harvested for measurement of their content of cholesteryl [^14C] oleate and [^14C] triglycerides.\nThe rate of incorporation of [^14C] oleate into cholesteryl [^14C] oleate and [^14C] triglycerides by monolayers of NPC1^−/− cells and CHO-7 cells was measured as described previously. In brief, cells were switched to medium containing LPDS supplemented with compactin and mevolonate at 16 h before the experiments. On the day of the experiment, cells were incubated for 4 h with fresh medium containing FCS as a source of cholesterol-containing lipoproteins. Cells were then pulse –labeled for 2 h with 0.1 mM sodium [^14C] oleate. Cells were then washed, and the lipids were extracted in hexane:isopropanol (3:2, vol:vol), separated on a silica gel G thin-layer chromatogram (developed in heptane:ethylether:acetic acid, 90:30:1), and quantified by scintillation counting with the use of an internal standard for recovery.", "note": "Several values for one entry are separate records, joined by “and”; a condition that tells them apart may be missing. Equal entries are not always repeated.", "data": [{"smiles": "CCC(C)n1ncn(-c2ccc(N3CCN(c4ccc(OCC5COC(Cn6cncn6)(c6ccc(Cl)cc6Cl)O5)cc4)CC3)c(Br)c2)c1=O", "note": "(centres unmarked) [I-Br]", "values": [{"measurement": "cholesteryl [14C] oleate formed, Repeat 1", "setting": "0.01 uM compound", "value": "4.59 nanomoles formed per hour per milligram cell protein"}, {"measurement": "cholesteryl [14C] oleate formed, Repeat 2", "setting": "0.01 uM compound", "value": "4.968 nanomoles formed per hour per milligram cell protein"}, {"measurement": "cholesteryl [14C] oleate formed, Repeat 3", "setting": "0.01 uM compound", "value": "4.668 nanomoles formed per hour per milligram cell protein"}, {"measurement": "cholesteryl [14C] oleate formed, Repeat 4", "setting": "0.01 uM compound", "value": "4.998 nanomoles formed per hour per milligram cell protein"}, {"measurement": "cholesteryl [14C] oleate formed, Repeat 1", "setting": "0.03 uM compound", "value": "5.377 nanomoles formed per hour per milligram cell protein"}, {"measurement": "cholesteryl [14C] oleate formed, Repeat 2", "setting": "0.03 uM compound", "value": "4.886 nanomoles formed per hour per milligram cell protein"}, {"measurement": "cholesteryl [14C] oleate formed, Repeat 3", "setting": "0.03 uM compound", "value": "4.708 nanomoles formed per hour per milligram cell protein"}, {"measurement": "cholesteryl [14C] oleate formed, Repeat 4", "setting": "0.03 uM compound", "value": "4.077 nanomoles formed per hour per milligram cell protein"}, {"measurement": "cholesteryl [14C] oleate formed, Repeat 1", "setting": "0.06 uM compound", "value": "4.324 nanomoles formed per hour per milligram cell protein"}, {"measurement": "cholesteryl [14C] oleate formed, Repeat 2", "setting": "0.06 uM compound", "value": "4.164 nanomoles formed per hour per milligram cell protein"}, {"measurement": "cholesteryl [14C] oleate formed, Repeat 3", "setting": "0.06 uM compound", "value": "4.605 nanomoles formed per hour per milligram cell protein"}, {"measurement": "cholesteryl [14C] oleate formed, Repeat 4", "setting": "0.06 uM compound", "value": "3.966 nanomoles formed per hour per milligram cell protein"}, {"measurement": "cholesteryl [14C] oleate formed, Repeat 1", "setting": "0.1 uM compound", "value": "3.9836 nanomoles formed per hour per milligram cell protein"}, {"measurement": "cholesteryl [14C] oleate formed, Repeat 2", "setting": "0.1 uM compound", "value": "4.202 nanomoles formed per hour per milligram cell protein"}, {"measurement": "cholesteryl [14C] oleate formed, Repeat 3", "setting": "0.1 uM compound", "value": "4.772 nanomoles formed per hour per milligram cell protein"}, {"measurement": "cholesteryl [14C] oleate formed, Repeat 4", "setting": "0.1 uM compound", "value": "3.292 nanomoles formed per hour per milligram cell protein"}, {"measurement": "cholesteryl [14C] oleate formed, Repeat 1", "setting": "0.3 uM compound", "value": "1.539 nanomoles formed per hour per milligram cell protein"}, {"measurement": "cholesteryl [14C] oleate formed, Repeat 2", "setting": "0.3 uM compound", "value": "1.1254 nanomoles formed per hour per milligram cell protein"}, {"measurement": "cholesteryl [14C] oleate formed, Repeat 3", "setting": "0.3 uM compound", "value": "1.245 nanomoles formed per hour per milligram cell protein"}, {"measurement": "cholesteryl [14C] oleate formed, Repeat 4", "setting": "0.3 uM compound", "value": "1.037 nanomoles formed per hour per milligram cell protein"}, {"measurement": "cholesteryl [14C] oleate formed, Repeat 1", "setting": "1 uM compound", "value": "0.2467 nanomoles formed per hour per milligram cell protein"}, {"measurement": "cholesteryl [14C] oleate formed, Repeat 2", "setting": "1 uM compound", "value": "0.5544 nanomoles formed per hour per milligram cell protein"}, {"measurement": "cholesteryl [14C] oleate formed, Repeat 3", "setting": "1 uM compound", "value": "0.5005 nanomoles formed per hour per milligram cell protein"}, {"measurement": "cholesteryl [14C] oleate formed, Repeat 4", "setting": "1 uM compound", "value": "0.5131 nanomoles formed per hour per milligram cell protein"}, {"measurement": "IC50", "value": "200 nM and ~200 nM"}]}, {"smiles": "CC(=O)N1CCN(c2ccc(OCC3COC(Cn4ccnc4)(c4ccc(Cl)cc4Cl)O3)cc2)CC1", "note": "(centres unmarked) [Ketoconazole, ketoconazole]", "values": [{"measurement": "cholesteryl [14C] oleate formed, Repeat 1", "setting": "0.06 uM compound", "value": "5.105 nanomoles formed per hour per milligram cell protein"}, {"measurement": "cholesteryl [14C] oleate formed, Repeat 2", "setting": "0.06 uM compound", "value": "4.499 nanomoles formed per hour per milligram cell protein"}, {"measurement": "cholesteryl [14C] oleate formed, Repeat 1", "setting": "0.1 uM compound", "value": "5.133 nanomoles formed per hour per milligram cell protein"}, {"measurement": "cholesteryl [14C] oleate formed, Repeat 2", "setting": "0.1 uM compound", "value": "5.266 nanomoles formed per hour per milligram cell protein"}, {"measurement": "cholesteryl [14C] oleate formed, Repeat 3", "setting": "0.1 uM compound", "value": "5.665 nanomoles formed per hour per milligram cell protein"}, {"measurement": "cholesteryl [14C] oleate formed, Repeat 4", "setting": "0.1 uM compound", "value": "5.29 nanomoles formed per hour per milligram cell protein"}, {"measurement": "cholesteryl [14C] oleate formed, Repeat 1", "setting": "0.3 uM compound", "value": "4.872 nanomoles formed per hour per milligram cell protein"}, {"measurement": "cholesteryl [14C] oleate formed, Repeat 2", "setting": "0.3 uM compound", "value": "4.637 nanomoles formed per hour per milligram cell protein"}, {"measurement": "cholesteryl [14C] oleate formed, Repeat 3", "setting": "0.3 uM compound", "value": "4.5308 nanomoles formed per hour per milligram cell protein"}, {"measurement": "cholesteryl [14C] oleate formed, Repeat 4", "setting": "0.3 uM compound", "value": "5.341 nanomoles formed per hour per milligram cell protein"}, {"measurement": "cholesteryl [14C] oleate formed, Repeat 1", "setting": "1 uM compound", "value": "4.011 nanomoles formed per hour per milligram cell protein"}, {"measurement": "cholesteryl [14C] oleate formed, Repeat 2", "setting": "1 uM compound", "value": "4.3222 nanomoles formed per hour per milligram cell protein"}, {"measurement": "cholesteryl [14C] oleate formed, Repeat 3", "setting": "1 uM compound", "value": "3.625 nanomoles formed per hour per milligram cell protein"}, {"measurement": "cholesteryl [14C] oleate formed, Repeat 4", "setting": "1 uM compound", "value": "4.546 nanomoles formed per hour per milligram cell protein"}, {"measurement": "IC50", "value": "> 1000", "unit": "nM"}, {"measurement": "inhibition of NPC1-mediated cholesterol transport", "setting": "result in words", "value": "did not inhibit"}]}]}
